Data on 21 molecules can be found in ChEMBL document CHEMBL3046399, “Microwave assisted synthesis of novel pyrimidine derivatives and investigation of their analgesic and ulcerogenic activity” (Med Chem Res, 2012).

Series [1] deals with Mus musculus. Nature of the series: Analgesic activity in Mus musculus Swiss albino (mouse) assessed as protection against acetic acid-induced writhing response at 20 mg/kg, po administered 30 min prior to acetic acid challenge measured at 2 hr relative to control. The class given is functional.
Series [2] relates to Mus musculus. Kind of series: Analgesic activity in Mus musculus Swiss albino (mouse) assessed as protection against acetic acid-induced writhing response at 20 mg/kg, po administered 30 min prior to acetic acid challenge measured at 1 hr relative to control. The series is classed as functional. (In general: An intraperitoneal irritant provokes the stretching counted in writhing tests.)

Series [3] deals with Mus musculus. Kind of series: Analgesic activity in Mus musculus Swiss albino (mouse) assessed as protection against acetic acid-induced writhing response at 20 mg/kg, po administered 30 min prior to acetic acid challenge measured at 0.5 hr relative to control. The series is classed as functional.
Series [4] relates to Mus musculus. Kind of series: Ulcerogenic activity in Mus musculus Swiss albino (mouse) stomach assessed as decrease in ulcer spots at 60 mg/kg, po after 17 hr by hematoxylin-eosin staining relative to vehicle-treated control. The note with it: in vivo. The class given is toxicity, organism-based. Also on record: dose 60 mg/kg, route oral.

Structures are written as SMILES.

Regarding `COc1ccccc1-c1cc(-c2cc3cc(Br)ccc3oc2=O)nc(NCN2CCOCC2)n1`, the figures for the Activity in the series with Mus musculus [1], in the series with Mus musculus [2] and with Mus musculus [3] were 37.61%, 36.13% and 41.97%, respectively.

Take `COc1cccc(-c2cc(-c3cc4cc(Br)ccc4oc3=O)nc(NCN3CCOCC3)n2)c1`: the values for the Activity with Mus musculus [1], in the series with Mus musculus [2] and in the series on Mus musculus [3] were 47.42%, 53.41% and 60.62%, respectively.

In the case of `O=c1oc2ccc(Br)cc2cc1-c1cc(-c2ccc(Cl)cc2Cl)nc(NCN2CCOCC2)n1`, the Activity entry is reported as “Non-toxic” in the series on Mus musculus [4], 69.6% with Mus musculus [1], 85.36% in the series with Mus musculus [2] and 95.34% in the series on Mus musculus [3].

For `O=c1oc2ccc(Br)cc2cc1-c1cc(-c2c(Cl)cccc2Cl)nc(NCN2CCOCC2)n1`, the figures for the Activity in the series on Mus musculus [1], in the series on Mus musculus [2] and in the series with Mus musculus [3] were 75.26%, 87.96% and 95.34%, respectively.

With `O=c1oc2ccc(Br)cc2cc1-c1cc(-c2cccc(Cl)c2)nc(NCN2CCCCC2)n1`, the Activity with Mus musculus [1] is listed as 51.53%; in the series with Mus musculus [2], 83.25%; in the series with Mus musculus [3] it was 81.87%.

On to `O=c1oc2ccc(Br)cc2cc1-c1cc(-c2ccc(Cl)cc2)nc(NCN2CCCCC2)n1`, for which the values for the Activity in the series on Mus musculus [1], in the series with Mus musculus [2] and in the series on Mus musculus [3] were 61.86%, 77.47% and 83.94%, respectively.

`O=c1oc2ccc(Br)cc2cc1-c1cc(-c2ccccc2Br)nc(NCN2CCCCC2)n1`: the values for the Activity with Mus musculus [1], with Mus musculus [2] and in the series on Mus musculus [3] were 15.47%, 40.31% and 55.96%, respectively.

With `O=c1oc2ccc(Br)cc2cc1-c1cc(-c2cccc(Br)c2)nc(NCN2CCCCC2)n1`, the values for the Activity in the series on Mus musculus [1], in the series with Mus musculus [2] and with Mus musculus [3] were 39.16%, 37.7% and 41.97%, respectively.

For the molecule `O=c1oc2ccc(Br)cc2cc1-c1cc(-c2ccc(Br)cc2)nc(NCN2CCCCC2)n1`, the Activity in the series with Mus musculus [1] turned out to be 32.47%; in the series with Mus musculus [2], 41.88%; in the series on Mus musculus [3], 49.74%.

As to `COc1ccccc1-c1cc(-c2cc3cc(Br)ccc3oc2=O)nc(NCN2CCCCC2)n1`, the figures for the Activity in the series on Mus musculus [1], with Mus musculus [2] and with Mus musculus [3] were 33.5%, 65.44% and 77.72%, respectively.

Turning to `COc1cccc(-c2cc(-c3cc4cc(Br)ccc4oc3=O)nc(NCN3CCCCC3)n2)c1`, the Activity turned out to be 35.05% in the series with Mus musculus [1], 63.87% with Mus musculus [2] and 74.09% with Mus musculus [3].

For the molecule `O=c1oc2ccc(Br)cc2cc1-c1cc(-c2ccc(Cl)cc2Cl)nc(NCN2CCCCC2)n1`, the Activity was determined as 38.14% in the series with Mus musculus [1], 69.12% with Mus musculus [2] and 83.94% with Mus musculus [3].

Consider `O=c1oc2ccc(Br)cc2cc1-c1cc(-c2c(Cl)cccc2Cl)nc(NCN2CCCCC2)n1`, for which the Activity in the series with Mus musculus [1] is 15.47%; in the series with Mus musculus [2] it was 18.32%; in the series with Mus musculus [3], 26.43%.

As to `O=c1oc2ccc(Br)cc2cc1-c1cc(-c2ccccc2Cl)nc(NCN2CCOCC2)n1`, the values for the Activity in the series on Mus musculus [1], in the series on Mus musculus [2] and with Mus musculus [3] were 64.43%, 87.97% and 97.93%, respectively.

With `O=c1oc2ccc(Br)cc2cc1-c1cc(-c2cccc(Cl)c2)nc(NCN2CCOCC2)n1`, the Activity in the series on Mus musculus [1] stood at 40.71%; in the series on Mus musculus [2], 62.3%; in the series with Mus musculus [3], 69.95%.

On to `O=c1oc2ccc(Br)cc2cc1-c1cc(-c2ccc(Cl)cc2)nc(NCN2CCOCC2)n1`, for which the Activity with Mus musculus [1] is 55.68%; in the series with Mus musculus [2], 89.54%; in the series on Mus musculus [3], 98.45%.

Turning to `O=c1oc2ccc(Br)cc2cc1-c1cc(-c2ccccc2Br)nc(NCN2CCOCC2)n1`, the Activity in the series on Mus musculus [1] turned out to be 47.94%; in the series with Mus musculus [2] it was 50.27%; in the series on Mus musculus [3], 59.59%.

For `O=c1oc2ccc(Br)cc2cc1-c1cc(-c2cccc(Br)c2)nc(NCN2CCOCC2)n1`, the Activity worked out at 47.42% in the series on Mus musculus [1], 45.55% in the series with Mus musculus [2] and 52.33% with Mus musculus [3].

On to `O=c1oc2ccc(Br)cc2cc1-c1cc(-c2ccc(Br)cc2)nc(NCN2CCOCC2)n1`, for which the Activity in the series on Mus musculus [1] stood at 46.89%; with Mus musculus [2], 51.3%; in the series on Mus musculus [3], 61.66%.

As for `O=c1oc2ccc(Br)cc2cc1-c1cc(-c2ccccc2Cl)nc(NCN2CCCCC2)n1`, the figures for the Activity in the series on Mus musculus [1], with Mus musculus [2] and in the series with Mus musculus [3] were 52.06%, 84.83% and 89.64%, respectively.

As to `O=C([O-])Cc1ccccc1Nc1c(Cl)cccc1Cl.[Na+]` [DICLOFENAC SODIUM], the values for the Activity with Mus musculus [1], in the series on Mus musculus [2] and with Mus musculus [3] were 84.53%, 94.25% and 95.87%, respectively.
